The test system of the test is Onchocerca gutturosa Adult Male Worms. Description: Onchocerciasis in vitro screening model, worm motility score. Type of test: cell-based. As to conditions: read-out: O. gutturosa activity level (IC50 or MED).
The mark [1] stands for this setting: in vitro, Onchocerca gutturosa adult male worms, class A/B/C.
Where [2] appears, read: Onchocerca gutturosa, Table 1 O. gutturosa, levels A/B/C, motility or MTT readout not specified.

Structures are written as SMILES. Like-named read-outs stand apart in the source and are kept apart here.

Turning to `Cc1ccnc(Nc2nnc(-c3ncccc3C)o2)c1` [Compound 236, 5-(3-methyl-pyridin-2-yl)-N-(4-methy-lpyridin-2-yl)-1,3,4-oxadiazol-2-amine], the IC50 under setting [1] lay within 500 to 5000 nM.
For `CC(C)Oc1cccnc1-c1nsc(Nc2cc(N3CCCC3)ccn2)n1` [Compound 94, 3-(3-isopropoxy-pyridin-2-yl)-N-(4-(pyrrolidin-1-yl)pyridin-2-yl)-1,2,4-thiadiazol-5-amine], under setting [2], the IC50 is less than 200 nM.
Same read-out and setting: to `CNc1cccnc1Nc1nc(-c2ccc(OC3CCN(C)CC3)cn2)ns1` [Compound 53, N3-methyl-N2-(3-(5-(1-methyl-piperidin-4-yloxy)pyridin-2-yl)-1,2,4-thiadiazol-5-yl) pyridine-2,3-diamine] belongs 200 to 500 nM.
For the molecule `Cc1cnc(Nc2nc(-c3cc(OC4COC4)ccn3)ns2)c(C(F)(F)F)c1` [Compound 275, N-(5-methyl-3-(trifluoromethyl)pyridin-2-yl)-3-(4-(oxetan-3-yloxy)pyridin-2-yl)-1,2,4-thiadiazol-5-amine], the IC50 under setting [1] was in the range of 500 to 5000 nM.
Same read-out and setting: to `COc1ccc(-c2nsc(Nc3ccc(OC(C)C)cn3)n2)nc1` [Compound 215, N-(5-isoprop-oxypyridin-2-yl)-3-(5-methoxy-pyridin-2-yl)-1,2,4-thiadiazol-5-amine] belongs 500 to 5000 nM; to `CC(=O)N(C)c1cc(C(F)(F)F)cnc1Nc1nc(-c2cc(OC3CCOCC3)ccn2)ns1` [Compound 306, N-methyl-N-(2-(3-(4-(tetrahydro-2H-pyran-4-yloxy)pyridin-2-yl)-1,2,4-thiadiazol-5-ylamino)-5-(trifluoromethyl)pyridin-3-yl)acetamide], less than 200 nM; to `CC(=O)N(C)c1cc(C(F)(F)F)cnc1Nc1nc(-c2cc3c(cn2)CN(C(C)C)C3)ns1` [Compound 311, N-(2-(3-(2-isopropyl-2,3-dihydro-1H-pyrrolo[3,4-c]pyridin-6-yl)-1,2,4-thiadiazol-5-ylamino)-5-(trifluoromethyl)pyridin-3-yl)-N-methylacetamide], less than 200 nM.
Same read-out and setting: then `CC(C)Oc1cnc(-c2nsc(Nc3ncccc3C(=O)N(C)C)n2)cc1C(F)F` [Compound 260, 2-(3-(4-(difluoro-methyl)-5-isopropoxy-pyridin-2-yl)-1,2,4-thiadiazol-5-ylamino)-N,N-dimethyl-nicotinamide], with 500 to 5000 nM; and `COc1ccc(-c2nsc(Nc3ccc(C(F)(F)F)cn3)n2)nc1` [Compound 209, 3-(5-methoxy-pyridin-2-yl)-N-(5-(trifluoromethyl)pyridin-2-yl)-1,2,4-thiadiazol-5-amine], with less than 200 nM.
Turning to `Cc1cccnc1Nc1nc(-c2ccc(OC3CCN(C4CC4)C[C@@H]3F)cn2)ns1` (stereo partly drawn) [Compound 92, 3-(5-((3S)-1-cyclopropyl-3-fluoro-piperidin-4-yloxy)pyridin-2-yl)-N-(3-methylpyridin-2-yl)-1,2,4-thiadiazol-5-amine], under setting [2], the IC50 was less than 200 nM.
Same read-out and setting: then `Cc1cccnc1Nc1nc(-c2ccc(OC3CCN(C)CC3)cn2)ns1` [Compound 18, 3-(5-(1-methyl-piperidin-4-yloxy)pyridin-2-yl)-N-(3-methylpyridin-2-yl)-1,2,4-thiadiazol-5-amine], with 200 to 500 nM; and `CN1CCC(S(=O)(=O)c2ccc(-c3nsc(Nc4ncccc4N(C)C)n3)nc2)CC1` [Compound 142, N3,N3-dimethyl-N2-(3-(5-(1-methylpiperidin-4-ylsulfonyl)pyridin-2-yl)-1,2,4-thiadiazol-5-yl)pyridine-2,3-diamine], with 500 to 5000 nM.
The same measure, in the same setting: then `Cc1cccnc1Nc1nc(-c2ccc(OC3CCN(C4CCCC4)CC3)cn2)ns1` [Compound 72, 3-(5-(1-cyclo-pentylpiperidin-4-yloxy)pyridin-2-yl)-N-(3-methylpyridin-2-yl)-1,2,4-thiadiazol-5-amine], with 200 to 500 nM.
As for `Cc1cccnc1Nc1nnc(-c2cc(C(C)C)ccn2)o1` [Compound 104, 5-(4-isopropyl-pyridin-2-yl)-N-(3-methyl-pyridin-2-yl)-1,3,4-oxadiazol-2-amine], the IC50 under setting [2] is less than 200 nM.
`Cc1cccnc1Nc1nc(-c2ncc(OC(C)C)cn2)ns1` [Compound 315, 3-(5-isopropoxy-pyrimidin-2-yl)-N-(3-methylpyridin-2-yl)-1,2,4-thiadiazol-5-amine]: under setting [1], the IC50 is 500 to 5000 nM.
Still for that read-out and setting: to `Cc1cc(C(F)(F)F)cnc1Nc1nc(-c2cc3c(cn2)N(C)CC3)ns1` [Compound 324, 3-(1-methyl-2,3-dihydro-1H-pyrrolo[2,3-c]pyridin-5-yl)-N-(3-methyl-5-(trifluoromethyl)pyridin-2-yl)-1,2,4-thiadiazol-5-amine] belongs less than 200 nM.
Regarding `COc1ccc(Nc2nc(-c3ccccn3)ns2)nc1` [Cmpd 2, N-(5-methoxy-pyridin-2-yl)-3-(pyridin-2-yl)-1,2,4-thiadiazol-5-amine], the IC50 under setting [2] was in the range of 500 to 5000 nM.
For the molecule `c1ccc(-c2ccnc(Nc3nc(-c4ccccn4)no3)c2)cc1` [Compound 246, N-(4-phenyl-pyridin-2-yl)-3-(pyridin-2-yl)-1,2,4-oxadiazol-5-amine], the IC50 under setting [1] lay in the range of 500 to 5000 nM.
For `CC(C)Oc1ccc(-c2nsc(Nc3ncccc3N(C)C(=O)C3CCC3)n2)nc1` [Compound 171, N-(2-(3-(5-isopropoxy-pyridin-2-yl)-1,2,4-thiadiazol-5-ylamino)pyridin-3-yl)-N-methylcyclo-butane-carboxamide], under setting [2], the IC50 was less than 200 nM.
With `CC(=O)N(C)c1cc(C(F)(F)F)cnc1Nc1nc(-c2cc(C(C)C)ccn2)ns1` [Compound 301, N-(2-(3-(4-isopropylpyridin-2-yl)-1,2,4-thiadiazol-5-ylamino)-5-(trifluoromethyl)pyridin-3-yl)-N-methylacetamide], under setting [1], the IC50 was less than 200 nM.
In the case of `Cc1cccnc1Nc1nc(-c2ccc(OC3CC3)cn2)n(C)n1` [Compound 103, N-(5-(5-cyclopropoxy-pyridin-2-yl)-1-methyl-1H-1,2,4-triazol-3-yl)-3-methyl-pyridin-2-amine], under setting [2], the IC50 is less than 200 nM.
Same read-out and setting: then `CN(C)c1cccnc1Nc1nc(-c2cc(C(F)(F)F)c(OC3CC3)cn2)ns1` [Compound 111, N2-(3-(5-cyclo-propoxy-4-(trifluoromethyl)pyridin-2-yl)-1,2,4-thiadiazol-5-yl)-N3,N3-dimethyl-pyridine-2,3-diamine], with less than 200 nM.
`CC(C)Oc1ccc(-c2nsc(Nc3ncc(C(F)(F)F)cc3N3CCCC3=O)n2)nc1` [Compound 312, 1-(2-(3-(5-isopropoxypyridin-2-yl)-1,2,4-thiadiazol-5-ylamino)-5-(trifluoromethyl)pyridin-3-yl)pyrrolidin-2-one]: the IC50 under setting [1] lay in the range of 500 to 5000 nM.
`COc1ccc(-c2noc(Nc3cc(OC4CCOCC4)ccn3)n2)nc1` [Compound 47, 3-(5-methoxy-pyridin-2-yl)-N-(4-(tetrahydro-2H-pyran-4-yloxy)pyridin-2-yl)-1,2,4-oxadiazol-5-amine]: the IC50 under setting [2] was 500 to 5000 nM.
In the case of `CC(=O)N(C)c1cnc(-c2nsc(Nc3ncccc3C)n2)cc1C` [Compound 270, N-methyl-N-(4-methyl-6-(5-(3-methylpyridin-2-ylamino)-1,2,4-thiadiazol-3-yl)pyridin-3-yl)acetamide], the IC50 under setting [1] is 500 to 5000 nM.
For the molecule `CN(C)c1cccnc1Nc1nc(-c2ccc(S(=O)(=O)C3CCN(C4CC4)CC3)cn2)ns1` [Compound 145, N2-(3-(5-(1-cyclopropyl-piperidin-4-ylsulfonyl)pyridin-2-yl)-1,2,4-thiadiazol-5-yl)-N3,N3-dimethyl-pyridine-2,3-diamine], the IC50 under setting [2] lay within 500 to 5000 nM.

Source of the values: patent US11505548B2, “Heterocyclic compounds and their use for treatment of helminthic infections and diseases” (Celgene Corporation, priority 2019, dated 2022).
